# Results as given in PMC7216583 (Parasites & Vectors, 2020).
# Where a name gives a salt, the structure may show the parent alone. Read-outs that look alike come from different tables or passages of the source.
# Experiments:
# [1] = tested on: Toxoplasma gondii RH-2F tachyzoites; experiment: microbe, parasite or virus in culture; settings: 72 h
# [2] = tested on: mTORC2; parameters: method as in library vendor description; settings: ref library vendor description; cited from earlier work
# [3] = tested on: mTORC1; parameters: method as in library vendor description; settings: ref library vendor description; cited from earlier work
# [4] = tested on: GFP-TgAtg8 tachyzoites; experiment: Egress assay (A23187-induced); settings: compound for 24 h, 3 μM A23187 for 5 min
# [5] = tested on: NWT-21 cells (NIH3T3 stably expressing the human IGF-IR); settings: in vitro; read-out: IC50 against NWT-21 cells; cited from earlier work
# [6] = tested on: RH GFP-TgAtg8 tachyzoites; experiment: Intracellular proliferation assay; settings: NVP-AEW541 […], GSK-J4 HCl 5 μM, 24 h after 2 h infection
# [7] = tested on: GFP-TgAtg8 tachyzoites; experiment: Flow cytometric analysis of the parasite cell cycle (PI staining); format: cell-based, Toxoplasma gondii; settings: 8 h with compound after PDTC synchronization
# Method: Flow cytometric analyses were performed as described previously. Briefly, HFFs were infected with GFP-TgAtg8 tachyzoites at a MOI = 1. At 12 hpi, the cell cycle was synchronized by adding 80 μM pyrrolidine dithiocarbamate (PDTC, Sigma-Aldrich) and incubating at 37 °C and 5% CO2 for 8 h. After removing the PDTC, cells were incubated at 37 °C and 5% CO2 for 8 h in media containing the specified compound. The extracellular parasites were removed by washing with ice-cold PBS, and the intracellular tachyzoites were isolated by passage of host cells through a 27-gauge needle and purified with a 3 μm filter. The purified parasites were fixed with ice cold ethanol at − 20 °C for 24 h, and their DNA was stained by using propidium iodide (PI) solution (40 μg/ml PI, 360 μg/ml RNase A and 2% BSA in PBS) at 37 °C for 30 min in the dark. The stained parasites were filtered with a 5 μm pore filter and analysed on a FACSCanto™II flow cytometer (BD Biosciences, CA, USA). The results were analysed on an EPICS-XL flow cytometer (Beckman Coulter, CA, USA) by using SYSTEM II software (Beckman Coulter), and the percentages of the population in each phase of the cell cycle (G1, S, and G2 +M) were calculated. At least 10,000 events were collected per sample.
# [8] = tested on: human foreskin fibroblasts (HFFs)
# [9] = tested on: human foreskin fibroblasts (HFFs); experiment: In vitro drug efficacy: dose-response host cell viability by CCK8 (TD50); format: cell-based; settings: uninfected HFFs, serial dilutions 0 to 100 μM, 72 h
# Method: Each selected compound with an initial concentration of 100 μM in the culture medium was added to the first column of HFFs (~ 250 cells/well) in a 96-well half-area plate and then diluted serially across the plate by 2-fold dilutions, leaving the final column drug-free. […] Fifty tachyzoites were then added at a MOI of 1:5 to each well in six of the eight rows. After a 72 h incubation, CPRG was added, and the absorbance was measured at 570 nm. Meanwhile, to measure the effect of each compound on the viability of host cells, CCK8 reagent was added to the two rows of uninfected HFFs and absorbance at 450 nm was measured after 2 h. The assay was performed in triplicate and repeated three times.
# [10] = tested on: T. gondii RH strain; experiment: Murine model of acute toxoplasmosis: survival; format: in vivo, BALB/c mice; settings: 50 mg/kg oral once daily for 5 days, RH tachyzoites ip, 20-day observation, n = 10; vehicle 11.9 ± 0.74 days
# Method: To evaluate the ability of the two compounds to protect against acute T. gondii infection in vivo, we used a BALB/c murine model and challenged the mice with the RH-2F strain of T. gondii. Mice were divided into 4 groups consisting of 15 mice each and injected intraperitoneally with 10^3 RH strains per animal. Compounds were dissolved in DMSO and diluted in PBS prior to feeding to mice. After 4 h of infection, mice were treated for 5 consecutive days with daily oral administration of the specified compound at 50 mg/kg (once a day). Mice treated with pyrimethamine (50 mg/kg) were used as a positive control, and 1 ml PBS containing 11 μl of DMSO was used as a negative control. Within each group, 5 mice were euthanized at 7 dpi for comparison of parasite burden, and 10 mice were part of a 20-day survival experiment. Mice were monitored as described previously and scored twice per day for signs of toxoplasmosis, such as impaired mobility, difficulty in feeding, weight loss, self-mutilation and severe ascites. […] At the end of the experimental period, all remaining mice were euthanized.
# [11] = tested on: IGF-1R; parameters: method as in library vendor description; settings: ref library vendor description; cited from earlier work
# [12] = cited from earlier work
# [13] = tested on: NWT-21 fibrosarcoma; settings: dose of 50 mg/kg; cited from earlier work
# [14] = tested on: Toxoplasma gondii RH-2F tachyzoites; settings: 5 μM compound, 72 h, RH-2F in HFFs; DMSO 0%, 10 μM pyrimethamine 100% inhibition
# [15] = tested on: Toxoplasma gondii RH-2F tachyzoites; experiment: microbe, parasite or virus in culture; format: cell-based; settings: 72 h, read-out: IC50 for parasite growth
# [16] = tested on: OSA 8 cells; parameters: method as in library vendor description; settings: HSP90 inhibitor; ref library vendor description; cited from earlier work
# [17] = tested on: c-Raf-1Y340D/Y341D; parameters: method as in library vendor description; settings: ref library vendor description; cited from earlier work
# [18] = tested on: EGFRL858R; parameters: method as in library vendor description; settings: ref library vendor description; cited from earlier work
# [19] = tested on: EGFR(E746_A750); parameters: method as in library vendor description; settings: ref library vendor description; cited from earlier work
# [20] = tested on: A375 cells; parameters: method as in library vendor description; settings: Hsp90 inhibitor; ref library vendor description; cited from earlier work
# [21] = parameters: method as in library vendor description; settings: target not given; ref library vendor description; read-out: IC50 (DNA-damaging agent); cited from earlier work
# [22] = tested on: NS3/4A protease of hepatitis C virus (HCV); parameters: method as in library vendor description; settings: ref library vendor description; cited from earlier work
# [23] = tested on: MIAPaCa2 cells; parameters: method as in library vendor description; settings: ref library vendor description; cited from earlier work
# [24] = tested on: Capan2 cells; parameters: method as in library vendor description; settings: ref library vendor description; cited from earlier work
# [25] = tested on: BxPC3 cells; parameters: method as in library vendor description; settings: ref library vendor description; cited from earlier work
# [26] = tested on: PANC1 cells; parameters: method as in library vendor description; settings: ref library vendor description; cited from earlier work
# [27] = in vitro; settings: human; for viability at 72 h: Host viability (%) mean
# [28] = tested on: CDK9; parameters: method as in library vendor description; settings: ref library vendor description; cited from earlier work
# [29] = tested on: Flt; parameters: method as in library vendor description; settings: ref library vendor description; cited from earlier work
# [30] = tested on: Lck; parameters: method as in library vendor description; settings: ref library vendor description; cited from earlier work
# [31] = tested on: KDR; parameters: method as in library vendor description; settings: ref library vendor description; cited from earlier work
# [32] = tested on: c-Raf; parameters: method as in library vendor description; settings: ref library vendor description; cited from earlier work
# [33] = tested on: c-Kit; parameters: method as in library vendor description; settings: ref library vendor description; cited from earlier work
# [34] = tested on: CSF-1R; parameters: method as in library vendor description; settings: ref library vendor description; cited from earlier work
# [35] = target: human 17,20-lyase; parameters: method as in library vendor description; settings: ref library vendor description; cited from earlier work
# [36] = target: rat 17,20-lyase; parameters: method as in library vendor description; settings: ref library vendor description; cited from earlier work
# [37] = target: Aurora A; parameters: method as in library vendor description; settings: ref library vendor description; cited from earlier work
# [38] = tested on: Kasumi-1 cells; settings: in vitro; read-out: IC50 against Kasumi-1 cells; cited from earlier work
# [39] = tested on: Kasumi-1 cells; parameters: dose or concentration left out as unconfirmed; settings: cited from earlier work
# [40] = tested on: RH GFP-TgAtg8 parasites; experiment: Invasion assay; settings: pre-treated 8 h, GSK-J4 HCl 5 μM, invasion for 1 h
# [41] = tested on: EGFRL858R/T790M; parameters: method as in library vendor description; settings: ref library vendor description; cited from earlier work
# [42] = read-out: Parasite inhibition (%) mean, preliminary screen, mean
# [43] = read-out: Parasite inhibition (%) mean
compound,measurement,setting,value
COc1ccc(-c2ccc3c(N4CCOCC4)nc(N4C[C@@H](C)O[C@@H](C)C4)nc3n2)cc1CO [Ku-0063794],inhibition of growth at 5 µM,[1]; [42],31.4%
NVP-AEW541,effect on Toxoplasma egress,[4],neither NVP-AEW541 nor GSK-J4 HCl inhibits Toxoplasma egress
same,IC50,[5],1640 nM
same,effect on Toxoplasma intracellular growth (tachyzoites per vacuole),[6],not impaired
same,percentage of parasites in G1 phase,[7],44.25%
same,percentage of parasites in G2 phase,[7],8.30%
same,percentage of parasites in S phase,[7],47.45%
same,Host viability (%) mean,[8],80.7%
same,Host viability (%) Mean ± SD,[8]; 5 µM,80.7 ± 1.2%
same,TD50 against HFF (host cell),[9],7.3 µM
same,survival time of infected mice,[10],14.6 ± 1.84 days
same,IC50,[11],86 nM
same,toxicity in experimental mice,[12]; 50 mg/kg of body weight for 1–2 weeks,no apparent toxicity
same,anti-tumour activity in mouse model,[13],had anti-NWT-21 fibrosarcoma activity
same,Parasite inhibition (%) Mean ± SD,[14],91.5 ± 2.5%
same,IC50,"[15]; RH-2F-infected HFFs, serial dilutions 0 to 100 μM, β-Gal activity",1170 nM
CC(C)c1cc(-c2n[nH]c(=O)n2-c2ccc3c(ccn3C)c2)c(O)cc1O [Ganetespib (STA-9090)],inhibition of growth at 5 µM,[1]; [42],5.1%
same,IC50,[16],4 nM
CCCS(=O)(=O)Nc1ccc(F)c(C(=O)c2c[nH]c3ncc(Cl)cc23)c1F [PLX-4720],inhibition of growth at 5 µM,[1]; [42],0.2%
same,IC50,[17],6.7 nM
C=CC(=O)Nc1cccc(Oc2nc(Nc3ccc(N4CCN(C)CC4)cc3)ncc2Cl)c1 [WZ3146],inhibition of growth at 5 µM,[1]; [43],-33.7%
same,IC50,[18],2 nM
same,IC50,[19],2 nM
CC(C)c1cc(C(=O)N2Cc3ccc(CN4CCN(C)CC4)cc3C2)c(O)cc1O [AT13387],inhibition of growth at 5 µM,[1]; [42],-1.7%
same,IC50,[20],18 nM
Cn1c(CCCC(=O)O)nc2cc(N(CCCl)CCCl)ccc21 [Bendamustine HCL],inhibition of growth at 5 µM,[1]; [43],0.4%
same,IC50,[21],50 µM
CC(C)(C)OC(=O)N[C@H]1CCCCC/C=C\[C@@H]2C[C@@]2(C(=O)NS(=O)(=O)C2CC2)NC(=O)[C@@H]2C[C@@H](OC(=O)N3Cc4cccc(F)c4C3)CN2C1=O [Danoprevir],inhibition of growth at 5 µM,[1]; [42],0.9%
same,IC50,[22],0.2 to 3.5 nM
Nc1ccn([C@@H]2O[C@@H](CO)[C@@H](O)C2(F)F)c(=O)n1 [Gemcitabine HCl (Gemzar)],IC50,[23],40 nM
same,IC50,[24],12 nM
same,IC50,[25],18 nM
same,IC50,[26],50 nM
same,inhibition of growth at 5 µM,[1]; [42],75.4%
same,viability,[27],16.8%
CC(C)(C)c1cnc(CSc2cnc(NC(=O)C3CCNCC3)s2)o1 [SNS-032 (BMS-387032)],inhibition of growth at 5 µM,[1]; [42],9.9%
O=C(Nc1ccc(OC(F)(F)F)cc1)c1sccc1NCc1ccnc2ccccc12 [OSI-930],IC50,[29],8 nM
same,inhibition of growth at 5 µM,[1]; [42],1%
same,IC50,[30],22 nM
same,IC50,[31],9 nM
same,IC50,[32],41 nM
same,IC50,[33],80 nM
same,IC50,[34],15 nM
CNC(=O)c1ccc2cc(C3(O)CCn4cncc43)ccc2c1 (stereo not shown) [TAK-700 (Orteronel)],inhibition of growth at 5 µM,[1]; [42],0.9%
same,IC50,[35],38 nM
same,IC50,[36],54 nM
Cc1nc(N)sc1-c1ccnc(Nc2ccc(N3CCOCC3)cc2)n1 [CYC116],inhibition of growth at 5 µM,[1]; [42],71.7%
same,Ki,[37],8 nM
same,viability at 72 h,[27],60.6%
CCOC(=O)CCNc1cc(N2CCc3ccccc3CC2)nc(-c2ccccn2)n1 [GSK-J4 HCl],effect on Toxoplasma egress,[4],neither NVP-AEW541 nor GSK-J4 HCl inhibits Toxoplasma egress
same,effect on Toxoplasma intracellular growth (tachyzoites per vacuole),[6],significantly inhibited Toxoplasma intracellular growth
same,percentage of parasites in G1 phase,[7],70.88%
same,percentage of parasites in G2 phase,[7],0.00%
same,percentage of parasites in S phase,[7],29.12%
same,inhibition at 5 µM,[1]; read-out: Parasite inhibition (%) Mean ± SD,90.4 ± 1.4%
same,TD50 against HFF (host cell),[9],34.6 µM
same,survival time of infected mice,[10],15.2 ± 1.69 days
same,toxicity in experimental mice,[12]; 50 mg/kg of body weight for 4–6 weeks,no apparent toxicity
same,IC50,[38],5.52 µM
same,"viability at 72 h, 5 µM",[27]; Host viability (%) Mean ± SD,92.2 ± 3.8%
same,viability at 72 h,[27],92.2%
same,leukemia infiltration in AML xenograft mouse model,[39],decreased leukemia infiltration
same,effect on ability of parasites to invade host cells,[40],not affected
same,IC50,[15]; Toxoplasma gondii,2370 nM
C=CC(=O)Nc1cccc(Oc2nc(Nc3ccc(N4CCN(C)CC4)cc3OC)ncc2Cl)c1 [WZ4002],IC50,[41],[…]
same,inhibition of growth at 5 µM,[1]; [42],-5.9%
